This is an account of results in ChEMBL document CHEMBL5150076, “Discovery of Novel Orally Bioavailable Triazoles with Potent and Broad-Spectrum Antifungal Activity In Vitro and In Vivo” (J Med Chem, 2022).

As a reminder, the MIC is the lowest concentration that inhibits growth of the organism.

Assay type in all cases: functional
In assay [1] the test system is Cryptococcus neoformans. The assay can be described thus: Antifungal activity against Cryptococcus neoformans 32605.
A further assay concerns Trichophyton rubrum. The assay can be described thus: Antifungal activity against Trichophyton rubrum cmccftla.
The test system of a further assay is Aspergillus fumigatus. The assay can be described thus: Antifungal activity against Aspergillus fumigatus 7544 incubated for 48 hrs by microbroth dilution method.
Assay [2] concerns Cryptococcus neoformans. The assay can be described thus: Antifungal activity against Cryptococcus neoformans H99 incubated for 72 hrs by microbroth dilution method.
In assay [3] the test system is Candida albicans. The assay can be described thus: Antifungal activity against Candida albicans SC5314 incubated for 24 hrs by microbroth dilution method. (Dilution methods test growth across graded concentrations, often in twofold steps.)
In a further assay the test system is Nannizzia gypsea. The assay can be described thus: Antifungal activity against Microsporum gypseum.
The next assay relates to Candida parapsilosis. The assay can be described thus: Antifungal activity against Candida parapsilosis 22019. As to conditions: Lodderomyces parapsilosis.
In assay [4] the test system is Candida albicans. The assay can be described thus: Antifungal activity against Candida albicans Y0109.
In another assay the test system is Nakaseomyces glabratus. The assay can be described thus: Antifungal activity against Candida glabrata 537.

Each structure is given as a SMILES string. In brackets after ≈: the same amount, converted by molar mass.

Consider `C[C@@H](c1cn(-c2cc(F)ccc2F)nn1)[C@](O)(Cn1cncn1)c1ccc(F)cc1F`, for which the MIC was 0.0313 µg/mL (≈ 0.0724 µM) against Cryptococcus neoformans [1]; 0.25 µg/mL (≈ 0.578 µM) against Trichophyton rubrum; 2 µg/mL (≈ 4.63 µM) with Aspergillus fumigatus; 0.0625 µg/mL (≈ 0.145 µM) with Cryptococcus neoformans [2]; 0.0625 µg/mL (≈ 0.145 µM) in the assay on Candida albicans [3]; 2 µg/mL (≈ 4.63 µM) against Nannizzia gypsea. The figures for the MIC in the assay with Candida parapsilosis, in the assay on Candida albicans [4] and with Nakaseomyces glabratus were 0.0625 µg/mL (≈ 0.145 µM), 0.0313 µg/mL (≈ 0.0724 µM) and 0.0625 µg/mL (≈ 0.145 µM), respectively.

As for `C[C@@H](c1cn(-c2ccc(OCc3ccc(Cl)cc3)cc2)nn1)[C@](O)(Cn1cncn1)c1ccc(F)cc1F`, the values for the MIC with Aspergillus fumigatus, with Cryptococcus neoformans [2] and with Candida albicans [3] were above 64 µg/mL, 0.0625 µg/mL (≈ 0.116 µM) and 0.5 µg/mL (≈ 0.931 µM), respectively.

In the case of `C[C@@H](c1cn(-c2cccnc2)nn1)[C@](O)(Cn1cncn1)c1ccc(F)cc1F`, the MIC was found to be 32 µg/mL (≈ 80.5 µM) with Aspergillus fumigatus, 2 µg/mL (≈ 5.03 µM) against Cryptococcus neoformans [2] and 0.25 µg/mL (≈ 0.629 µM) in the assay on Candida albicans [3].

Regarding `C[C@@H](c1cn(-c2ccccc2F)nn1)[C@](O)(Cn1cncn1)c1ccc(F)cc1F`, the results for the MIC in the assay on Aspergillus fumigatus, in the assay on Cryptococcus neoformans [2] and against Candida albicans [3] were 2 µg/mL (≈ 4.83 µM), 0.0625 µg/mL (≈ 0.151 µM) and 0.0625 µg/mL (≈ 0.151 µM), respectively.

For `C[C@@H](c1cn(-c2c(F)c(F)cc(F)c2F)nn1)[C@](O)(Cn1cncn1)c1ccc(F)cc1F`, the MIC against Aspergillus fumigatus came to 2 µg/mL (≈ 4.27 µM); with Cryptococcus neoformans [2] it was 0.0625 µg/mL (≈ 0.133 µM); with Candida albicans [3], 0.0625 µg/mL (≈ 0.133 µM).

As to `C[C@@H](c1cn(-c2ccc(F)c(F)c2)nn1)[C@](O)(Cn1cncn1)c1ccc(F)cc1F`, the MIC in the assay with Aspergillus fumigatus came out at 8 µg/mL (≈ 18.5 µM); in the assay with Cryptococcus neoformans [2], 0.125 µg/mL (≈ 0.289 µM); against Candida albicans [3], 0.0625 µg/mL (≈ 0.145 µM).

As for `C[C@@H](c1cn(-c2ccccc2)nn1)[C@](O)(Cn1cncn1)c1ccc(F)cc1F`, the MIC in the assay on Aspergillus fumigatus stood at 4 µg/mL (≈ 10.1 µM); with Cryptococcus neoformans [2], 0.0625 µg/mL (≈ 0.158 µM); against Candida albicans [3], 0.0625 µg/mL (≈ 0.158 µM).

`C[C@@H](c1cn(-c2ccc(Cl)cc2F)nn1)[C@](O)(Cn1cncn1)c1cc(F)ccc1F`: the MIC with Aspergillus fumigatus amounted to 4 µg/mL (≈ 8.91 µM); against Cryptococcus neoformans [2] it was 0.0625 µg/mL (≈ 0.139 µM); in the assay on Candida albicans [3], 0.0625 µg/mL (≈ 0.139 µM).

On to `C[C@@H](c1cn(-c2ccc(OCc3ccc(C(F)(F)F)cc3)cc2)nn1)[C@](O)(Cn1cncn1)c1ccc(F)cc1F`, for which the MIC against Aspergillus fumigatus is 16 µg/mL (≈ 28 µM); with Cryptococcus neoformans [2], 0.125 µg/mL (≈ 0.219 µM); against Candida albicans [3], 1 µg/mL (≈ 1.75 µM).

As for `C[C@@H](c1cn(-c2ccc(O)cc2)nn1)[C@](O)(Cn1cncn1)c1ccc(F)cc1F`, the MIC against Aspergillus fumigatus is above 64 µg/mL; in the assay with Cryptococcus neoformans [2] it was 2 µg/mL (≈ 4.85 µM); in the assay with Candida albicans [3] it was 3 µg/mL (≈ 7.27 µM).

As to `C[C@@H](c1cn(-c2ccc(OCC(F)(F)F)nc2)nn1)[C@](O)(Cn1cncn1)c1ccc(F)cc1F`, the minimal inhibitory concentration (MIC) in the assay on Aspergillus fumigatus was 2 µg/mL (≈ 4.04 µM); in the assay with Cryptococcus neoformans [2], 0.0625 µg/mL (≈ 0.126 µM); in the assay on Candida albicans [3], 0.0313 µg/mL (≈ 0.0632 µM).

On to `C[C@@H](c1cn(-c2cc(F)c(F)c(F)c2)nn1)[C@](O)(Cn1cncn1)c1ccc(F)cc1F`, for which the figures for the MIC with Aspergillus fumigatus, against Cryptococcus neoformans [2] and against Candida albicans [3] were 2 µg/mL (≈ 4.44 µM), 0.125 µg/mL (≈ 0.278 µM) and 0.125 µg/mL (≈ 0.278 µM), respectively.

On to `C[C@@H](c1cn(-c2ccc(OC(F)(F)F)cc2)nn1)[C@](O)(Cn1cncn1)c1cc(F)ccc1F`, for which the MIC against Aspergillus fumigatus stood at 32 µg/mL (≈ 66.6 µM); against Cryptococcus neoformans [2], 0.125 µg/mL (≈ 0.26 µM); in the assay on Candida albicans [3] it was 0.0625 µg/mL (≈ 0.13 µM).

`C[C@@H](c1cn(-c2ccc(OCc3ccc(C(C)(C)C)cc3)cc2)nn1)[C@](O)(Cn1cncn1)c1ccc(F)cc1F`: the MIC was above 64 µg/mL with Aspergillus fumigatus, 0.5 µg/mL (≈ 0.895 µM) in the assay with Cryptococcus neoformans [2] and 0.125 µg/mL (≈ 0.224 µM) against Candida albicans [3].

As to `C[C@@H](c1cn(-c2ccc(Br)cc2)nn1)[C@](O)(Cn1cncn1)c1ccc(F)cc1F`, the MIC with Aspergillus fumigatus amounted to 8 µg/mL (≈ 16.8 µM); in the assay on Cryptococcus neoformans [2], 0.125 µg/mL (≈ 0.263 µM); with Candida albicans [3], 0.0625 µg/mL (≈ 0.131 µM).

Regarding `C[C@@H](c1cn(-c2ccc(F)cc2F)nn1)[C@](O)(Cn1cncn1)c1ccc(F)cc1F`, the MIC in the assay on Cryptococcus neoformans [1] turned out to be 0.0313 µg/mL (≈ 0.0724 µM); against Trichophyton rubrum, 0.125 µg/mL (≈ 0.289 µM); with Aspergillus fumigatus, 2 µg/mL (≈ 4.63 µM); in the assay with Cryptococcus neoformans [2], 0.0625 µg/mL (≈ 0.145 µM); in the assay with Candida albicans [3] it was 0.0625 µg/mL (≈ 0.145 µM); against Nannizzia gypsea, 2 µg/mL (≈ 4.63 µM). The MIC against Candida parapsilosis was 0.0313 µg/mL (≈ 0.0724 µM); in the assay on Candida albicans [4], 0.0625 µg/mL (≈ 0.145 µM); with Nakaseomyces glabratus, 0.0313 µg/mL (≈ 0.0724 µM).

As to `C[C@@H](c1cn(-c2ccc(OCc3ccc(OC(F)(F)F)cc3)cc2)nn1)[C@](O)(Cn1cncn1)c1ccc(F)cc1F`, the values for the MIC in the assay with Aspergillus fumigatus, against Cryptococcus neoformans [2] and against Candida albicans [3] were 8 µg/mL (≈ 13.6 µM), 0.0625 µg/mL (≈ 0.107 µM) and 0.25 µg/mL (≈ 0.426 µM), respectively.

For `C[C@@H](c1cn(-c2ccc(Cl)cc2Cl)nn1)[C@](O)(Cn1cncn1)c1ccc(F)cc1F`, the MIC is above 8 µg/mL in the assay on Aspergillus fumigatus and 0.125 µg/mL (≈ 0.269 µM) in the assay on Cryptococcus neoformans [2].

Turning to `CCCCOc1ccc(-n2cc([C@H](C)[C@](O)(Cn3cncn3)c3ccc(F)cc3F)nn2)cc1`, the values for the MIC against Aspergillus fumigatus, with Cryptococcus neoformans [2] and in the assay on Candida albicans [3] were 2 µg/mL (≈ 4.27 µM), 0.0625 µg/mL (≈ 0.133 µM) and 0.0156 µg/mL (≈ 0.0333 µM), respectively.

For `C[C@@H](c1cn(-c2ccc(F)cc2)nn1)[C@](O)(Cn1cncn1)c1ccc(F)cc1F`, the figures for the MIC in the assay with Aspergillus fumigatus, with Cryptococcus neoformans [2] and against Candida albicans [3] were 4 µg/mL (≈ 9.65 µM), 0.0625 µg/mL (≈ 0.151 µM) and 0.0625 µg/mL (≈ 0.151 µM), respectively.
